A short description of series [1]: isomerization / stability of 9,12-epoxy isomers. It is filed as physicochemical. An excerpt: As previously noted, Beckmann rearrangement of oxime (III) under anhydrous conditions leads to a product mixture comprised of the 6,9- and 9,12-bridged iminoethers (VI) and (VII). The 9,12-bridged product, which is formed by internal trapping of the intermediate nitrilium species by the hydroxyl group at C-12, is initially isolated as a mixture of major and minor forms that are isomeric about the imino double bond. The initial mixture of isomers equilibrates at room temperature, both in solution or on storing as a crude foam, to approximately a 1:1 mixture of isomers. The first-formed, major isomer can be isolated from the mixture by crystallization from nitromethane solution.
A solution of the mixture of 9,12-epoxy isomers in nitromethane (2 mL) deposited a large, crystalline mass on standing at room temperature for several days. The mixture was diluted with nitromethane (10 mL) and filtered to remove the solid portion, which was washed with nitromethane (2 mL) and dried under high vacuum. The white solid thus obtained (0.9 g) was shown by ^1 H NMR spectroscopy to be the major 9,12-epoxy isomer which is initially formed in the Beckmann rearrangement reaction.

Series [2] deals with Steptococcus pneumoniae CL 2883. Briefly: MIC, liquid turbidimetric microtiter method. It is filed as cell-based. Conditions: broth media. The source says:
(§1) The compounds of formula (II) show antibacterial activity against a range of aerobic Gram positive and negative bacteria, as shown in the following Table. The assay employs a liquid turbidimetric microtiter method for determination of the minimum inhibitory concentration (MIC) in broth media. […] The MIC is generally not an absolute value but rather a concentration range that falls within a two-fold dilution limit. Generally twelve two-fold dilutions of the test compound are employed with the initial concentration set at 128 mcg/ml.

The subject of series [3] is Staphylococcus aureus MB 2865. Briefly: MIC, liquid turbidimetric microtiter method. Conditions: MB2865, broth media. It is filed as cell-based.
From the text: as §1

In a further series the test system is Escherichia coli MB 4926. The series can be described thus: MIC, liquid turbidimetric microtiter method. Conditions: MB4926, broth media. It is filed as cell-based.
From the text: as §1

The subject of series [4] is Enterococcus faecium MB 5416. Briefly: MIC, liquid turbidimetric microtiter method. Conditions: MB5416, broth media. It is filed as cell-based.
From the text: as §1

In series [5] the test system is Streptococcus viridans CL 2943. Briefly: MIC, liquid turbidimetric microtiter method. It is filed as cell-based. Conditions: CL2943, broth media.
From the text: as §1

Series [6] has as its system Streptococcus pyogenes MB 2874. Briefly: MIC, liquid turbidimetric microtiter method. Conditions: MB2874, broth media. It is filed as cell-based.
From the text: as §1

Series [7] deals with Staphylococcus epidermidis MB 5414. The series can be described thus: MIC, liquid turbidimetric microtiter method. Conditions: MB5414, broth media. It is filed as cell-based.
From the text: as §1

In series [8] the test system is Streptococcus agalactiae CL 1343. The series can be described thus: MIC, liquid turbidimetric microtiter method. It is filed as cell-based. Conditions: CL1343, broth media.
From the text: as §1

The subject of series [9] is Enterococcus faecalis MB 5407. The series can be described thus: MIC, liquid turbidimetric microtiter method. It is filed as cell-based. Conditions: MB5407, broth media.
From the text: as §1

Series [10] concerns Streptococcus pyogenes MB 5406. The series can be described thus: MIC, liquid turbidimetric microtiter method. It is filed as cell-based. Conditions: MB5406, broth media.
From the text: as §1

In series [11] the test system is Pseudomonas stutzeri MB 1231. The series can be described thus: MIC, liquid turbidimetric microtiter method. It is filed as cell-based. Conditions: Stutzerimonas stutzeri, MB1231, broth media.
From the text: as §1

Series [12] relates to Klebsiella pneumoniae MB 4005. Briefly: MIC, liquid turbidimetric microtiter method. It is filed as cell-based. Conditions: MB4005, broth media.
From the text: as §1

Another series concerns Escherichia coli MB 2884. Briefly: MIC, liquid turbidimetric microtiter method. Format: cell-based. Conditions: MB2884, broth media.
From the text: as §1

Series [13] has as its system Staphylococcus haemolyticus MB 5412. The series can be described thus: MIC, liquid turbidimetric microtiter method. Conditions: MB5412, broth media. Format: cell-based.
From the text: as §1

The subject of series [14] is Yersinia enterocoltica CL 1598. Briefly: MIC, liquid turbidimetric microtiter method. Format: cell-based. Conditions: CL1598, broth media.
From the text: as §1

Each structure is given as a SMILES string. Converted amounts (≈) assume the structure as drawn.

For the molecule `CC[C@H]1OC(=O)[C@H](C)[C@@H](O[C@H]2C[C@@](C)(OC)[C@@H](O)[C@H](C)O2)[C@H](C)[C@@H](O[C@@H]2O[C@H](C)C[C@H](N(C)C)[C@H]2O)[C@](C)(O)C[C@@H](C)N=C2O[C@@]1(C)[C@H](O)[C@H]2C` (single isomer, unassigned; isomer 9) [crystalline isomer, 9-deoxo-12-deoxy-9,12-epoxy-8a,9-didehydro-8a-aza-8a-homoerythromycin A], the solid state stability entry in series [1] is “stable in the solid state”.

As a reminder, the MIC is the smallest concentration in the dilution series that meets the test's criterion for growth inhibition. Regarding `CC[C@H]1OC(=O)[C@H](C)[C@@H](O[C@H]2C[C@@](C)(OC)[C@@H](O)[C@H](C)O2)[C@H](C)[C@@H](O[C@@H]2O[C@H](C)C[C@H](N(C)C)[C@H]2O)[C@](C)(O)C[C@@H](C)N=C2O[C@@]1(C)[C@H](O)[C@H]2C` [(VII), 9-Deoxo-12-deoxy-9,12-epoxy-8a,9-didehydro-8a-aza-8a-homoerythromycin A], the minimal inhibitory concentration (MIC) is 4 µg/mL (≈ 5.47 µM) in series [2]; 16 µg/mL (≈ 21.9 µM) in series [3]; 32 µg/mL (≈ 43.8 µM) with Escherichia coli MB 4926; 16 µg/mL (≈ 21.9 µM) in series [4]; 4 µg/mL (≈ 5.47 µM) in [5]; 2 µg/mL (≈ 2.74 µM) in series [6]. For the same molecule, the MIC is 16 µg/mL (≈ 21.9 µM) in series [7]; 4 µg/mL (≈ 5.47 µM) in [8]; over 128 µg/mL in series [9]; over 128 µg/mL in [10]; 2 µg/mL (≈ 2.74 µM) in [11]; over 128 µg/mL in series [12]. Moreover, the values for the MIC (against Escherichia coli MB 2884; in series [13]) were 128 µg/mL (≈ 175 µM) and 32 µg/mL (≈ 43.8 µM), respectively.

For the molecule `CC[C@H]1OC(=O)[C@H](C)[C@@H](O[C@H]2C[C@@](C)(OC)[C@@H](O)[C@H](C)O2)[C@H](C)[C@@H](O[C@@H]2O[C@H](C)C[C@H](N(C)C)[C@H]2O)[C@@]2(C)C[C@@H](C)N=C(O2)[C@H](C)[C@@H](O)[C@]1(C)O` [(VI), 9-Deoxo-6-deoxy-6,9-epoxy-8a,9-didehydro-8a-aza-8a-homoerythromycin A], the minimal inhibitory concentration (MIC) in series [2] amounted to 0.5 µg/mL (≈ 0.684 µM); in [3], 16 µg/mL (≈ 21.9 µM); with Escherichia coli MB 4926 it was 8 µg/mL (≈ 10.9 µM); in series [4], 8 µg/mL (≈ 10.9 µM); in [5], 16 µg/mL (≈ 21.9 µM); in [6], 1 µg/mL (≈ 1.37 µM). Besides, the minimum inhibitory concentration (MIC) turned out to be 32 µg/mL (≈ 43.8 µM) in [7]; 1 µg/mL (≈ 1.37 µM) in series [8]; 32 µg/mL (≈ 43.8 µM) in series [9]; 128 µg/mL (≈ 175 µM) in series [10]; 0.5 µg/mL (≈ 0.684 µM) in series [11]; 128 µg/mL (≈ 175 µM) in series [14]. The minimum inhibitory concentration (MIC) in series [12] is over 128 µg/mL; against Escherichia coli MB 2884 it was 128 µg/mL (≈ 175 µM); in series [13], 8 µg/mL (≈ 10.9 µM).

Source of the values: patent US5189159A, “8a-AZA-8a-homoerythromycin cyclic iminoethers” (Merck & Co., Inc., priority 1992, dated 1993).
